{"source": "patent US20230137092A1", "about": "“Composition and Method for the Treatment and Prevention of Cardiac, Pulmonary, Dermal, and Renal Fibrosis” (EMERALD HEALTH PHARMACEUTICALS INC., priority 2020, published 2023)", "key": {"[1]": {"test_system": "NFAT", "test": "Gal4-NFAT / Gal4-Luc reporter assay in hICF", "format": "cell-based, human", "conditions": "hICF transfected with Gal4-Luc and Gal4-NFAT, stimulated 6 hours", "method": "hICF cells were transiently transfected for 24 hours with the Gal4-Luc reporter plasmid (which includes five Gal4 DNA binding sites fused to the luciferase gene) and the Gal4-NFAT1-415plasmid for 24 hours using Roti-Fect (Carl Roth GmbH & Co. KG, Karlsruhe, Germany). Then cells were stimulated for 6 hours and luciferase activity in the cell lysates was measured. The specific transactivation expressed as a percentage of activation relative to control. Compound of Formula (VIII) inhibited Ang II-induced NFAT activation (FIG. 16B)."}, "[2]": {"test_system": "ERK1+2", "test": "Ang II-induced ERK1+2 phosphorylation in hICF, immunoblot", "format": "cell-based, human", "conditions": "hICF preincubated with compound, Ang II for 30 minutes", "method": "The effect of compound of Formula (VIII) on Ang II signaling pathways in hICF was investigated. ERK1+2 and NFAT activation are two pathways activated by Ang-II (Wakatsuki et al., 2004, Trends Biochem Sci, 29:609-617). hICF were preincubated with compound of Formula (VIII), treated with Ang II for 30 minutes, washed with PBS and proteins extracted in 50 μL of lysis buffer (50 mM Tris-HCl pH 7.5, 150 mM NaCl, 1% (v/v) NP-40, 10% (v/v) glycerol, 10 mM NaF, 1 mM Na3VO4, aprotinin (10 μg/ml), leupeptine (10 μg/ml), pepstatin (1 μg/ml) and 1 mM PMSF saturated). Separated proteins in 10% SDS/PAGE gels were transferred to PVDF membranes and blocked in TBS solution containing 0.1% Tween 20 and 5% bovine serum albumin (BSA) for 1 hour at room temperature. Immunodetection of specific proteins was carried out by incubation with primary antibodies against p-ERK (1:1000; #4695 Cell Signaling Technology) and ERK (1:1000, M5670, Sigma). Membranes were incubated with horseradish peroxidase-conjugated secondary antibody was added and proteins detected by chemiluminescence system (GE Healthcare Europe GmbH). Compound of Formula (VIII) inhibited Ang II-induced ERK1+2 phosphorylation (FIG. 16B)."}}}
{"smiles": "CCCCc1nc(Cl)c(CO)n1Cc1ccc(-c2ccccc2-c2nn[nH]n2)cc1", "note": "[Losartan, reference compound]", "values": [{"measurement": "Ang II-induced NFAT activation (luciferase)", "setting": "[1]", "result": "inhibited"}, {"measurement": "Ang II-induced ERK1+2 phosphorylation", "setting": "[2]", "result": "inhibited"}]}
